The test system of the test is HIV-1. Description: Phenotypic HIV-1 entry inhibitor susceptibility assay (pseudotyped virus, single-round infection, luciferase readout). The class given is cell-based. The following applies: for IC50 for inhibition of entry, resistant HIV relative to sensitive reference virus / maximum percentage of inhibition, resistant viruses relative to sensitive viruses: log-sigmoid inhibition curves; for IC50 for inhibition of entry, resistant HIV relative to sensitive reference virus / completeness of inhibition of entry of resistant virus at high inhibitor concentrations / maximum percentage of inhibition, resistant viruses relative to sensitive viruses: viruses resistant to the inhibitor; for IC50 for inhibition of entry, resistant HIV relative to sensitive reference virus: FIG. 5; for maximum percentage of inhibition, resistant viruses relative to sensitive viruses: FIG. 6, FIG. 8. The method, then:
Susceptibility assays for HIV-1 entry inhibitors were performed using packaging host cells consisting of the human embryonic kidney cell line 293 (Cell Culture Facility, UC San Francisco, SF, Calif.) and target host cells consisting of a human osteosarcoma (HOS) cell line expressing CD4 (HT4) plus CCR5, and CXCR4, or astrocytoma (U-87) cell lines expressing either CD4 and CCR5 or CD4 and CXCR4.
Drug susceptibility testing was performed using pHIVenv and pHIVluc or pHIVlucΔU3. Pseudotyped HIV particles containing envelope proteins encoded by the subject derived segment were produced by transfecting a packaging host cell (HEK 293) with resistance test vector DNA. Virus particles were collected about 48 h after transfection and were used to infect target cells (HT4/CCR5/CXCR4, or U-87/CD4/CXCR4, or U-87/CD4/CCR5) that express the HIV receptor (i.e. CD4) and co-receptors (i.e. CXCR4, CCR5). After infection (~72 h) the target cells are lysed and luciferase activity is measured. HIV must complete one round of replication to successfully infect the target host cell and produce luciferase activity. The amount of luciferase activity detected in the infected cells is used as a direct measure of “infectivity” (FIGS. 1 and 2). […] Drug susceptibility is assessed by comparing the infectivity in the absence of drug to infectivity in the presence of drug.
Packaging host cells were seeded in 10-cm-diameter dishes and were transfected one day after plating with pHIVenv and pHIVluc or pHIVlucΔU3. Transfections were performed using a calcium-phosphate co-precipitation procedure. The cell culture media containing the DNA precipitate was replaced with fresh medium, from one to 24 hours, after transfection. Cell culture media containing viral particles was typically harvested 2 days after transfection and was passed through a […] filter. Before infection, target cells were plated in cell culture media. […] Typically, 3 days after infection target cells were assayed for luciferase activity using the Steady-Glo reagent (Promega) and a luminometer.
However, any such susceptibility assay known by one of skill in the art can in principle be used in the methods for determining phenotypic drug susceptibility. Drug susceptibility can be plotted, for example, as percent inhibition versus log10 drug concentration and defined based on, for example, the IC50 and percent inhibition at the highest drug concentration. […] In this example, the phenotypic drug susceptibility assay of Example 1 was used to determine a log-sigmoid curve showing the resistance of mutant HIV to SCH-C, TNX-355, T-20, and AMD-3100.

Consider `c1cc(CN2CCCNCCNCCCNCC2)ccc1CN1CCCNCCNCCCNCC1` [AMD-3100], for which the “IC50 for inhibition of entry, resistant HIV relative to sensitive reference virus” value is given as “increased IC50” and the “completeness of inhibition of entry of resistant virus at high inhibitor concentrations” value is “can be completely inhibited”.
`CCO/N=C(\c1ccc(Br)cc1)C1CCN(C2(C)CCN(C(=O)c3c(C)cc[n+]([O-])c3C)CC2)CC1` [SCH-C]: the “maximum percentage of inhibition, resistant viruses relative to sensitive viruses” value is “reduced maximum percentage of inhibition”.
Still for that read-out and setting: the result for “TNX-355: HIV entry inhibitor (Tanox Inc.), non-competitive” reads “reduced maximum percentage of inhibition”.
As for enfuvirtide, the “IC50 for inhibition of entry, resistant HIV relative to sensitive reference virus” value was “increased IC50” and the “completeness of inhibition of entry of resistant virus at high inhibitor concentrations” value was “can be completely inhibited”. Moreover, the “susceptibility of viruses with drug resistance mutations in the gp41 envelope protein” value (cells expressing CD4, CCR5 and CXCR4, isogenic viruses with one or two gp41 mutations, FIG. 4B) was “reduced susceptibility”.

Source of the values: patent publication US11459624B2, “Compositions and methods for determining resistance to inhibitors of virus entry using recombinant virus assays” (MONOGRAM BIOSCIENCES, INC., priority 2004, dated 2022).
